# Values joined by “and” are separate entries in the source; they are usually repeats but may differ in a detail not shown here. Identical values can stand only once.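 48-hour exposure; five concentrations; linearly interpolated endpoints. GI50 = concentration required for 50% inhibition of growth. TGI is the concentration that stops growth completely.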
# Tests used:
# Test in all cases: DTP human tumour cell line panel, 48 h
# SK-OV-3 ovarian = system: SK-OV-3 ovarian
# HS 578T breast = system: HS 578T breast
# UACC-62 melanoma = system: UACC-62 melanoma
# OVCAR-3 ovarian = system: OVCAR-3 ovarian
# SR leukemia = system: SR leukemia
# A498 renal = system: A498 renal
# T-47D breast = system: T-47D breast
# HL-60(TB) leukemia = system: HL-60(TB) leukemia
# HCC-2998 colon = system: HCC-2998 colon
# UACC-257 melanoma = system: UACC-257 melanoma
Structure (SMILES),GI50 (SK-OV-3 ovarian),TGI (SK-OV-3 ovarian),GI50 (HS 578T breast),TGI (HS 578T breast) [µM],GI50 (UACC-62 melanoma),TGI (UACC-62 melanoma),GI50 (OVCAR-3 ovarian),TGI (OVCAR-3 ovarian),GI50 (SR leukemia),TGI (SR leukemia),GI50 (A498 renal),TGI (A498 renal),GI50 (T-47D breast),TGI (T-47D breast) [µM],GI50 (HL-60(TB) leukemia),TGI (HL-60(TB) leukemia),GI50 (HCC-2998 colon),TGI (HCC-2998 colon),GI50 (UACC-257 melanoma),TGI (UACC-257 melanoma)
O=S(=O)(NC1=NCCN1C(=S)SN1CCn2c1nsc2=S)c1cccc(OC(F)(F)F)c1,23.5 µM,46.5 µM,35.9 µM,> 100,9.68 µM,21.6 µM,5.07 µM,16.4 µM,2.77 µM,> 100 µM,22.6 µM,42 µM,12.3 µM,39.4,> 100 µM,> 100 µM,5.16 µM,16.1 µM,17.3 µM,38.1 µM
CCN(CC)CCCC(C)Nc1c(-c2ccccc2)cnc2cc(Cl)ccc12 (stereo not drawn),15.3 µM,33.5 µM,6.82 µM,24.7,2.37 µM,6.26 µM,12.5 µM,26.5 µM,3.14 µM,> 24.6 µM,2.71 µM,13.8 µM,4.44 µM,16.2,5.29 µM,23.8 µM,2.34 µM,5.62 µM,2.46 µM,6.28 µM
Nc1n[nH]c(N)c1N=Nc1ccc(O)cc1,49.2 µM,> 100 µM,21.8 µM,77.8,11 µM,36.4 µM,22.7 µM,69.7 µM,10.3 µM,59.8 µM,18.2 µM,43.7 µM,14.2 µM,87.5,6.44 µM,35.4 µM,29.4 µM,> 100 µM,24.4 µM,85.1 µM
Cc1cccc2c(Nc3ccc(NS(C)(=O)=O)cc3)c3ccc([N+](=O)[O-])cc3nc12,2.4 µM,17.1 µM,1.23 µM,5.42,0.773 µM,3.01 µM,1.45 µM,4.91 µM,0.0598 µM,2.69 µM,0.703 µM,3.81 µM,0.147 µM,9.32,2.07 µM,7.09 µM,1.49 µM,3.11 µM,1.53 µM,4.6 µM
N#CC(C#N)=C(N)/C(C#N)=C/c1ccc2[nH]ccc2c1,,> 100 µM,,> 100,,> 100 µM,,> 100 µM,,> 100 µM,,> 100 µM,,> 100,,> 100 µM,,> 100 µM,,> 100 µM
NC(=O)c1cccc(-c2cc(C(N)=O)ccc2Cl)c1,5.63 µM,> 100 µM,2.59 µM,> 100,1.77 µM,56 µM,2.36 µM,37.5 µM,0.389 µM,18.3 µM,3.03 µM,15.3 µM,4.56 µM,> 100,2.42 µM,5.91 µM,7.43 µM,> 100 µM,25.9 µM,> 100 µM
CCOP(=O)(OCC)C1(O)CC(n2cc(C)c(=O)[nH]c2=O)OC1CO (stereo not drawn),,> 100 µM,,> 100,,> 100 µM,,> 100 µM,,> 100 µM,,> 100 µM,,> 100,,> 100 µM,,> 100 µM,,> 100 µM
CC1C2CC(C/C2=N/O)C1(C)C (stereo not drawn),,> 100 µM,,> 100,,> 100 µM,,> 100 µM,,> 100 µM,,> 100 µM,,> 100,,> 100 µM,,> 100 µM,,> 100 µM
CCOC(=O)C1=C(C)N2C(=NC3=C(CCC/C3=C\c3ccc(Cl)cc3)C2c2ccc(Cl)cc2)S1 (stereo not drawn),6.68 µM,> 100 µM,5.33 µM,> 100,3.25 µM,16.8 µM,2.36 µM,5.61 µM,1.65 µM,3.95 µM,1.37 µM,3.09 µM,3.61 µM,28.3,3.09 µM,9.24 µM,1.79 µM,3.19 µM,2.05 µM,5.18 µM
C=CCn1c(=O)c2cnc(Nc3ccc(N4CCN(C)CC4)cc3)nc2n1-c1cccc(C(C)(C)O)n1,0.251 µM and 0.237 µM,8.08 µM and > 3.11 µM,0.894 µM and 0.471 µM,> 60,1.18 µM and 0.484 µM,20.5 µM and > 10 µM,0.241 µM and 0.331 µM,0.9 µM and 1.47 µM,0.269 µM and 0.253 µM,1.67 µM and 2.07 µM,0.0319 µM and 0.0572 µM,0.364 µM and 0.448 µM,2.52 µM and 0.644 µM,> 100,0.272 µM and 0.325 µM,1.35 µM and > 3.11 µM,0.388 µM and 1.13 µM,7.26 µM and > 7.72 µM,0.675 µM and > 4.69 µM,18.7 µM and > 10 µM
COc1cc(C2CC(=O)Nc3c2cc(Br)c2ccccc32)cc(Br)c1OC (stereo not drawn),1.76 µM,3.35 µM,1.78 µM,> 54.2,1.64 µM,> 100 µM,1.14 µM,2.52 µM,0.416 µM,1.77 µM,1 µM,3.29 µM,1.61 µM,5.26,1.06 µM,3.98 µM,4.53 µM,> 100 µM,12.6 µM,> 100 µM
C[C@H]1c2ccccc2CN1CCCOc1cc2c(cc1OCC1CC1)C1(CCCC1)C(N)=N2,4.84 µM,10.7 µM,1.74 µM,9.44,0.925 µM,1.93 µM,1.91 µM,6.86 µM,1.15 µM,2.87 µM,1.56 µM,5.69 µM,0.99 µM,2.5,1.21 µM,3.16 µM,0.931 µM,1.78 µM,0.999 µM,2.13 µM
Nc1n[nH]c2ccc([C@@H]3Nc4cc5[nH]ncc5cc4[C@H]4C5CCC(C5)[C@@H]34)cc12 (stereo partly drawn),16 µM,> 100 µM,0.369 µM,> 100,0.272 µM,17.4 µM,0.381 µM,13.3 µM,0.564 µM,> 100 µM,0.174 µM,0.822 µM,0.498 µM,79.8,0.298 µM,2.24 µM,0.789 µM,49.1 µM,14.9 µM,> 78.4 µM
Cc1c2ccncc2c(C)c2c1c1cc(CO)ccc1n2C,0.784 µM,3.71 µM,0.96 µM,7.86,0.287 µM,1.76 µM,0.498 µM,2.32 µM,0.268 µM,2.65 µM,0.02 µM,0.0531 µM,0.268 µM,3.52,0.854 µM,5.6 µM,0.72 µM,3.42 µM,,
